In article PMC12124364 (Science Advances, 2025):

Key:
HIV-1 WT strain (IIIB) = assay: Anti-HIV activity against HIV-1 IIIB in MT-4 cells; assay type: cell-based; details: Human immunodeficiency virus 1, IIIB, MT4, read-out: EC50 IIIB strain
HIV-1 5e2res strain = assay: Anti-HIV activity against selected 5e2res strain in MT-4 cells; assay type: cell-based; details: for RF (resistance fold), 5e2res strain: EC50(mutant strain)/EC50(IIIB strain); for EC50: Human immunodeficiency virus 1, MT4, read-out: EC50 5e2res strain
HIV-1 5i3res strain = assay: Anti-HIV activity against selected 5i3res strain in MT-4 cells; assay type: cell-based; details: for EC50: Human immunodeficiency virus 1, MT4, read-out: EC50 5i3res strain
HIV-1 K103N mutation = details: cited from earlier work
[1] = test system: HIV-1 GH9 (K101P/K103N/V108I); assay: Anti-HIV-1 activity against triple-mutant strain GH9 in TZM-bl cells; assay type: cell-based; details: Human immunodeficiency virus 1, TZM-bl, read-out: EC50 GH9
[2] = test system: HIV-1 p1579 (E138G/H221Y/F227L/M230L); assay: Anti-HIV-1 activity against NNRTI-resistant strain p1579 in TZM-bl cells; assay type: cell-based; details: Human immunodeficiency virus 1, TZM-bl, read-out: EC50 p1579
[3] = test system: HIV-1 p5375 (A98G/K101E/E138K/Y181C); assay: Anti-HIV-1 activity against NNRTI-resistant strain p5375 in TZM-bl cells; assay type: cell-based; details: Human immunodeficiency virus 1, TZM-bl, read-out: EC50 p5375
[4] = test system: HIV-1 p1833 (A98G/K101E/Y181C/G190A); assay: Anti-HIV-1 activity against NNRTI-resistant strain p1833 in TZM-bl cells; assay type: cell-based; details: Human immunodeficiency virus 1, TZM-bl, read-out: EC50 p1833
[5] = test system: HIV-1 p5735 (K101E/Y181V); assay: Anti-HIV-1 activity against NNRTI-resistant strain p5735 in TZM-bl cells; assay type: cell-based; details: Human immunodeficiency virus 1, TZM-bl, read-out: EC50 p5735
[6] = test system: CYP1A2, CYP2C9, CYP2C19, CYP2D6 (range over isozymes); assay: Cytochrome P450 inhibition assay, ranges over isozymes; assay type: in vitro ADME; details: human, human liver microsomes
HIV-1 K101P mutation = details: cited from earlier work
[7] = Cytotoxicity in TZM-bl cells; assay type: cell-based; details: human
[8] = test system: HIV-1 GH9 (K101P/K103N/V108I); details: cited from earlier work

For Cc1cn([C@H]2C[C@H](N=[N+]=[N-])[C@@H](CO)O2)c(=O)[nH]c1=O [AZT, zidovudine], the EC50 (HIV-1 WT strain (IIIB)) was 40.9 nM, the “RF (resistance fold), 5e2res strain” value (HIV-1 5e2res strain) was 1.3 and the EC50 (HIV-1 5e2res strain) was 51.9 nM. The “RF (resistance fold), 5i3res strain” value (HIV-1 5i3res strain; EC50(mutant strain)/EC50(IIIB strain)) was 1.2 and the EC50 (HIV-1 5i3res strain) was 48.9 nM.

In the case of Cc1ccnc2c1NC(=O)c1cccnc1N2C1CC1 [NVP, nevirapine], the “EC50 5e2res strain” value (HIV-1 5e2res strain; MT-4 cells) is listed as “completely inactive”, the “EC50 5i3res strain” value (HIV-1 5i3res strain; MT-4 cells) is listed as “completely inactive” and the “reduction in susceptibility by K103N mutation” value (HIV-1 K103N mutation) is listed as ~50 fold.

Molecule Cc1cc(C#N)cc(C)c1Oc1nc(Nc2ccc(C#N)cc2)nc(N)c1Br [ETR, etravirine] has an EC50 [1] of 104 ± 38.2 nM, an EC50 [2] of 74.9 ± 18.9 nM and an EC50 [3] of 37.6 ± 8.06 nM. For the same molecule, the EC50 [4] was 11.1 ± 2.76 nM, the EC50 [5] was 14.3 ± 5.07 nM and the IC50 at 10 min [6] was 277 to 12000 nM. For the same molecule, the “reduction in efficacy by K101P mutation alone” value (“reduction in efficacy” below) (HIV-1 K101P mutation) was “about five-fold”.

For Cc1cc(/C=C/C#N)cc(C)c1Nc1ccnc(Nc2ccc(C#N)cc2)n1 [RPV, rilpivirine], the CC50 at 4 days [7] was > 54500 nM, the EC50 [1] was 1710 ± 339 nM and the EC50 [2] was 1.26 ± 0.38 nM. The EC50 [3] was 1.07 ± 0.3 nM, the EC50 [5] was 151 ± 32 nM and the EC50 (HIV-1 5e2res strain) was 16.6 nM. The EC50 (HIV-1 5i3res strain) was 74.6 nM, the “reduction in efficacy” value (HIV-1 K101P mutation) was “up to 243 fold” and the “resistance conferred by triple-mutant strain GH9” value [8] was > 162 fold.

Molecule O=c1[nH]cnc2c1ncn2[C@H]1CC[C@@H](CO)O1 [ddI, didanosine] has an EC50 (HIV-1 WT strain (IIIB)) of 19700 nM and an EC50 (HIV-1 5i3res strain) of 8930 nM.

For Nc1ccn([C@H]2CC[C@@H](CO)O2)c(=O)n1 [ddC, zalcitabine], the EC50 (HIV-1 WT strain (IIIB)) was 890 nM, the “RF (resistance fold), 5e2res strain” value (HIV-1 5e2res strain) was 0.8 and the EC50 (HIV-1 5e2res strain) was 690 nM.

In the case of O=C1Nc2ccc(Cl)cc2[C@@](C#CC2CC2)(C(F)(F)F)O1 [EFV, efavirenz], the “reduction in efficacy” value (HIV-1 K101P mutation) is listed as > 50 fold, the “reduction in susceptibility by K103N mutation” value (HIV-1 K103N mutation) is listed as “about 20 fold” and the “resistance conferred by triple-mutant strain GH9” value [8] is listed as “up to 12,931 fold”.
